Test results taken from PMC11233931, “Remodeling tumor‐associated macrophage for anti‐cancer effects by rational design of irreversible inhibition of mitogen‐activated protein kinase‐activated protein kinase 2” (MedComm, 2024).

Key:
Experiment in all cases: Eurofins kinase selectivity profile against 380 other human recombinant kinases (Table S2)
Type in all cases: biochemical
[1] = molecular target: T1, 380 human recombinant protein kinases (Homo sapiens, UniProt Q8TD19); conditions: NEK9(h), read-out: Inhibition rate
T1 construct: purchased Eurofins (Celle Lévescault)
T1 sequence (Q8TD19 1-979): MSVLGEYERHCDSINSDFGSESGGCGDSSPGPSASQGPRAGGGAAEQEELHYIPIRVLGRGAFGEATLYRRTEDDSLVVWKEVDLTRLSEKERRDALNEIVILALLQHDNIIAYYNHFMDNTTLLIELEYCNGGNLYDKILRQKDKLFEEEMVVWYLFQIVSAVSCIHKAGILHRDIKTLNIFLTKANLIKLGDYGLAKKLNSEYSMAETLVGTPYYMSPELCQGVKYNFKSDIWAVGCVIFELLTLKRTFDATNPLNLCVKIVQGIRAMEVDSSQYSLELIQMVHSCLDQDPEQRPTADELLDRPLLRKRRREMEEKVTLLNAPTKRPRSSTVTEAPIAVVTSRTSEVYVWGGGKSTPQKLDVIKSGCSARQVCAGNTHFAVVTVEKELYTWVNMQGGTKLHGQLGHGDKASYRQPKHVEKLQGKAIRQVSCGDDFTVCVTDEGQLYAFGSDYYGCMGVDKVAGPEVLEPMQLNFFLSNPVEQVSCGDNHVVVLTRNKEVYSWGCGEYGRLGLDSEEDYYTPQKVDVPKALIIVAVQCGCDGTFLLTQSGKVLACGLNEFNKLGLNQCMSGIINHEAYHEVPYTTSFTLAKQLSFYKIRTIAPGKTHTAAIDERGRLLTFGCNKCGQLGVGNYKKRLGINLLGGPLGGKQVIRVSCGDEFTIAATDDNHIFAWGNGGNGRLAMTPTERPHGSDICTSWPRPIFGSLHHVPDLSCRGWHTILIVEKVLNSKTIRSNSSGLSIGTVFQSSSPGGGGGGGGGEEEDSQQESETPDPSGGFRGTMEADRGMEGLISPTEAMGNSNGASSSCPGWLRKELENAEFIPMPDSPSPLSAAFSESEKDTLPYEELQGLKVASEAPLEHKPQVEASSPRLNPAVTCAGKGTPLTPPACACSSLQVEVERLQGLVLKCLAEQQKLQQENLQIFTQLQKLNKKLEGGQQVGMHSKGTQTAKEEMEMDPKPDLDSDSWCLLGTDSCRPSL
Outline: (§1)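 Outsourced panel: 380 human recombinant kinases; inhibitor tested at various concentrations; purpose: MK2 selectivity check.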

[2] = molecular target: T2, 380 human recombinant protein kinases (Homo sapiens, UniProt Q12866); conditions: Mer(h), read-out: Inhibition rate
T2 construct: purchased Eurofins (Celle Lévescault)
T2 sequence (Q12866 21-999): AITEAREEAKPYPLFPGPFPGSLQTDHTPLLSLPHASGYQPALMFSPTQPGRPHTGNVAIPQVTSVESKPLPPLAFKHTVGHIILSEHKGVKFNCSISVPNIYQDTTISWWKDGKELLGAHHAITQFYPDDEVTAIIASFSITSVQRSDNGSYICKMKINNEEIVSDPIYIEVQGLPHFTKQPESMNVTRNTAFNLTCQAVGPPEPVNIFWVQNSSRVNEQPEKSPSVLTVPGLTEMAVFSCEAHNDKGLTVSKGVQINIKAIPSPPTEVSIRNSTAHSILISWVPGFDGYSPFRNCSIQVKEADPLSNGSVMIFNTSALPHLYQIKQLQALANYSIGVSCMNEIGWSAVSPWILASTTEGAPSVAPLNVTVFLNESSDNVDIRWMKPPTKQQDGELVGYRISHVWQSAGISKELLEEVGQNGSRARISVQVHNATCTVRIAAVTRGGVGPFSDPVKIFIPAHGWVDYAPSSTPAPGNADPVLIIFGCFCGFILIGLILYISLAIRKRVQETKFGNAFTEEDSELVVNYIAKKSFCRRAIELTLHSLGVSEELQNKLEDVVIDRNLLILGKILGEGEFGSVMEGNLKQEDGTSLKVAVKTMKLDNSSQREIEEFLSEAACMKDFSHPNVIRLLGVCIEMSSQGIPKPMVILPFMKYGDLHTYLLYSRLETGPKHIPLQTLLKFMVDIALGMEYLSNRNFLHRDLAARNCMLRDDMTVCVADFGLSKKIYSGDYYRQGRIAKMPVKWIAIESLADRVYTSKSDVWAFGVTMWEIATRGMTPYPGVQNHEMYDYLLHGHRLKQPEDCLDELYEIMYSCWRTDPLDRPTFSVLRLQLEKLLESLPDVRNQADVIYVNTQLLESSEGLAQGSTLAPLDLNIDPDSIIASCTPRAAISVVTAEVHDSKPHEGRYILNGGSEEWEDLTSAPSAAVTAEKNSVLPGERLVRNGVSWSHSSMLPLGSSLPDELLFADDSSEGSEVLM
Outline: as §1

[3] = molecular target: T3, 380 human recombinant protein kinases (Homo sapiens, UniProt Q02763); conditions: Tie2 (h), read-out: Inhibition rate (%)
T3 construct: purchased Eurofins (Celle Lévescault)
Outline: as §1

[4] = molecular target: T4, 380 human recombinant protein kinases (Homo sapiens, UniProt Q00537); conditions: CDK17/cyclinY(h), read-out: Inhibition rate
T4 construct: purchased Eurofins (Celle Lévescault)
Outline: as §1

[5] = molecular target: T5, 380 human recombinant protein kinases (Homo sapiens, UniProt Q8WU08); conditions: STK32A(h), read-out: Inhibition rate (%)
T5 construct: purchased Eurofins (Celle Lévescault)
Outline: as §1

T5 sequence (Q8WU08 whole entry): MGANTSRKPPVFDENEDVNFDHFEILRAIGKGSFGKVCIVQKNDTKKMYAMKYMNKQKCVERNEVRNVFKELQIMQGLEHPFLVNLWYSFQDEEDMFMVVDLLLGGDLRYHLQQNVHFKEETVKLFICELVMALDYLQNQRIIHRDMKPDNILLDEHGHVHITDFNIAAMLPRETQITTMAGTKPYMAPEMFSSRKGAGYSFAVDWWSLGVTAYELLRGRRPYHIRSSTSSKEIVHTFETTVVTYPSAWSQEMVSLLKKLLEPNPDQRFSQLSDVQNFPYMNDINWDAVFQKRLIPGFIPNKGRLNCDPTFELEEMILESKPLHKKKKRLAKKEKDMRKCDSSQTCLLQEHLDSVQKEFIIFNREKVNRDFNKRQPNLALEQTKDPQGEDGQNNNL
T3 sequence (Q02763 23-1124): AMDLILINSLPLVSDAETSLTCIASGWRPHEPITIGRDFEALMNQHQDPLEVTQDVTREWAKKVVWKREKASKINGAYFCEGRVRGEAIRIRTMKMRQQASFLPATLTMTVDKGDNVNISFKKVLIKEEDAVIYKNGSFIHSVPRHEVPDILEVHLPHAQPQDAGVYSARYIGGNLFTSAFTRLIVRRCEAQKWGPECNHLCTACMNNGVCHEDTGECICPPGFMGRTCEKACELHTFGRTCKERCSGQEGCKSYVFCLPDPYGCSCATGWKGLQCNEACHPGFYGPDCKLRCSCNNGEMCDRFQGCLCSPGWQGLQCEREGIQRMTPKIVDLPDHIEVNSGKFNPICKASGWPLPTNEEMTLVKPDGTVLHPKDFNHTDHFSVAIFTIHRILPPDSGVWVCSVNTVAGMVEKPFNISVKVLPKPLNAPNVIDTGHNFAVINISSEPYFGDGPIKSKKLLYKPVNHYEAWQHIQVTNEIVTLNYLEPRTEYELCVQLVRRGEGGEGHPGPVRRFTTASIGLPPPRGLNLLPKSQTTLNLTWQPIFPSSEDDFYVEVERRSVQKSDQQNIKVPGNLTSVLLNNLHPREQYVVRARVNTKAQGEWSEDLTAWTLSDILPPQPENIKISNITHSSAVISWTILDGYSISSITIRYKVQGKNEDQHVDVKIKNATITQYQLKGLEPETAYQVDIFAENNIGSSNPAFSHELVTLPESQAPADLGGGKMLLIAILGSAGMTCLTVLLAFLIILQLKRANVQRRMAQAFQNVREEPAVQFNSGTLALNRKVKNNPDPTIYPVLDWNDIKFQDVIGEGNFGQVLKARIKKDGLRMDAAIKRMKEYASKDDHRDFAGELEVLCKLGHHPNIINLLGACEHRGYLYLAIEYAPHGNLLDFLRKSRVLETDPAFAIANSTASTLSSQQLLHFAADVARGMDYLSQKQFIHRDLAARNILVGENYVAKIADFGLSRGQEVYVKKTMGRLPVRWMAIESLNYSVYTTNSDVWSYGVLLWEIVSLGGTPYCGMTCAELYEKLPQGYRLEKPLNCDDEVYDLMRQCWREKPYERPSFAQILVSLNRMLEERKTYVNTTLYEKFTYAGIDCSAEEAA
T4 sequence (Q00537 whole entry): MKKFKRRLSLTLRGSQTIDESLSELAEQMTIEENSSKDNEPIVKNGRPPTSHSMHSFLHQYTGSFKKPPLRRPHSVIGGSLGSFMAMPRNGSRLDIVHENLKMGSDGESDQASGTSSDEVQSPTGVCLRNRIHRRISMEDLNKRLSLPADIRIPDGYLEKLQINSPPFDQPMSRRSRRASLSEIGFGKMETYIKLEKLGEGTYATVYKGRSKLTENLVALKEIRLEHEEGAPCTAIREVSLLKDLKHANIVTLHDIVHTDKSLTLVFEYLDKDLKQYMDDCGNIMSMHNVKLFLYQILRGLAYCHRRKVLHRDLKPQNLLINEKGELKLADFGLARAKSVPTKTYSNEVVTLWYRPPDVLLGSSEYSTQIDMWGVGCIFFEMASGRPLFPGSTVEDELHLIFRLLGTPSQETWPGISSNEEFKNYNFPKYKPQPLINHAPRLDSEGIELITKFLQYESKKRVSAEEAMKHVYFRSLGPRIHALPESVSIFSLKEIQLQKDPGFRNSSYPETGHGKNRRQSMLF

## C=CC(=O)Nc1cc(-c2cc(-c3cc4c([nH]3)CCNC4=O)ccn2)ccc1OC(F)(F)F [compound 11]
[1]; 10 nM
  inhibition at 0.01 µM: -2%
[1]; 100 nM
  inhibition at 0.1 µM: -6%
[1]; 1000 nM
  inhibition at 1 µM: 1%
[2]; 10 nM
  inhibition at 0.01 µM: -21%
[2]; 100 nM
  inhibition at 0.1 µM: 4%
[2]; 1000 nM
  inhibition at 1 µM: 28%
[3]; 10 nM
  inhibition at 0.01 µM: 0%
[3]; 100 nM
  inhibition at 0.1 µM: 10%
[3]; 1000 nM
  inhibition at 1 µM: 24%
[4]; 10 nM
  inhibition at 0.01 µM: 13%
[4]; 100 nM
  inhibition at 0.1 µM: 19%
[4]; 1000 nM
  inhibition at 1 µM: 25%
[5]; 10 nM
  inhibition at 0.01 µM: 3%
[5]; 100 nM
  inhibition at 0.1 µM: 10%
[5]; 1000 nM
  inhibition at 1 µM: 7%
